Laboratory results as given in US7138361B2, “Herbicidal heterocycles” (E. I. du Pont de Nemours and Company, priority 2000, dated 2006).

Columns and labels:
Test in all cases: Test C postemergence
Format in all cases: in vivo
[1] = tested on: Italian ryegrass (Lolium multiflorum)
Outline: (§1)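 Visual injury scores of 0–100, with 100 meaning complete control, were given relative to controls after 12–14 days in the greenhouse. Treatments used a surfactant-containing non-phytotoxic solvent formulation, sprayed on seeded pots preemergence or on 1–4-leaf plants of 2–18 cm postemergence.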

[2] = tested on: blackgrass (Alopecurus myosuroides)
Outline: as §1

[3] = tested on: canary grass (Phalaris minor)
Outline: as §1

[4] = tested on: downy brome (Bromus tectorum)
Outline: as §1

[5] = tested on: green foxtail (Setaria viridis)
Outline: as §1

[6] = tested on: wheat (Triticum aestivum)
Outline: as §1

[7] = tested on: wild oat (Avena fatua)
Outline: as §1

[8] = tested on: windgrass (Apera spica-venti)
Outline: as §1

[9] = Rate 125 g/ha, scale 0 to 100, 0 no effect, 100 complete control
[10] = Rate 250 g/ha, scale 0 to 100 (0 no effect, 100 complete control)
[11] = Rate 500 g/ha, scale 0 to 100 (0 no effect, 100 complete control)

Structure (SMILES): CC1(c2ccn(C3OCN(c4cccc(OC(F)(F)F)c4)C3=O)n2)CC1 (centres unmarked) [Compound 69]
- Plant response rating, Ryegrass ([1]; Rate 62 g/ha, scale 0 to 100): 0
- Plant response rating, Ryegrass [1, 9]: 0
- Plant response rating, Ryegrass [1, 10]: 0
- Plant response rating, Ryegrass [1, 11]: 30
- Plant response rating, Blackgrass ([2]; Rate 62 g/ha, scale 0 to 100): 0
- Plant response rating, Blackgrass [2, 9]: 0
- Plant response rating, Blackgrass [2, 10]: 0
- Plant response rating, Blackgrass [2, 11]: 20
- Plant response rating, Canarygrass ([3]; Rate 62 g/ha, scale 0 to 100): 0
- Plant response rating, Canarygrass [3, 9]: 0
- Plant response rating, Canarygrass [3, 10]: 0
- Plant response rating, Canarygrass [3, 11]: 0
- Plant response rating, Downy Brome ([4]; Rate 62 g/ha, scale 0 to 100): 0
- Plant response rating, Downy Brome [4, 9]: 0
- Plant response rating, Downy Brome [4, 10]: 0
- Plant response rating, Downy Brome [4, 11]: 0
- Plant response rating, Foxtail, Green ([5]; Rate 62 g/ha, scale 0 to 100): 0
- Plant response rating, Foxtail, Green [5, 9]: 30
- Plant response rating, Foxtail, Green [5, 10]: 30
- Plant response rating, Foxtail, Green [5, 11]: 60
- Plant response rating, Wheat ([6]; Rate 62 g/ha, scale 0 to 100): 0
- Plant response rating, Wheat [6, 9]: 0
- Plant response rating, Wheat [6, 10]: 0
- Plant response rating, Wheat [6, 11]: 0
- Plant response rating, Wild Oat ([7]; Rate 62 g/ha, scale 0 to 100): 0
- Plant response rating, Wild Oat [7, 9]: 0
- Plant response rating, Wild Oat [7, 10]: 0
- Plant response rating, Wild Oat [7, 11]: 20
- Plant response rating, Windgrass ([8]; Rate 62 g/ha, scale 0 to 100): 0
- Plant response rating, Windgrass [8, 9]: 0
- Plant response rating, Windgrass [8, 10]: 0
- Plant response rating, Windgrass [8, 11]: 20
